Results: patent US20230085307A1, “PYRIDAZINONE COMPOUND AND HERBICIDE” (NISSAN CHEMICAL CORPORATION, priority 2019, published 2023)

How the values were obtained:
late watergrass = test: Test Example 2: herbicidal activity, application during weed generation under submerged conditions (Table 17, symbol A); format: in vivo, late watergrass (Echinochloa oryzicola); settings: application during weed generation, submerged conditions
Summary of the method: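 Herbicide emulsion, diluted with water to the chosen amount, is applied onto 4 cm floodwater over alluvial soil where the weeds were co-sown and raised at 25–30° C. Application timing: 1–2 leaves. Assessment: three weeks afterwards.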

barnyard grass [1] = test: Test Example 3: herbicidal effect by foliage application, Wagner pot (Table 18, symbol H); format: in vivo, barnyard grass (Echinochloa crus-galli)
Summary of the method: (§1)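 Plants were sown in alluvial soil held under 0.1–0.5 cm standing water and grown 14 days in a greenhouse at 25–30 °C. An emulsifiable formulation, water-diluted to the set dose, was then sprayed onto the foliage, and effects were scored three weeks later using previously defined criteria.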

Chinese sprangletop = test: Test Example 3: herbicidal effect by foliage application, Wagner pot (Table 18, symbol D); format: in vivo, chinese sprangletop (Leptochloa chinensis)
Summary of the method: as §1

southern crabgrass = test: Test Example 4: herbicidal effect by soil treatment (Table 19, symbol F); format: in vivo, southern crabgrass (Digitaria ciliaris)
Summary of the method: (§2)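 Herbicidal effect was rated 3 weeks after treatment, using the scoring criteria of an earlier test. The compound, formulated as an emulsion and diluted in water to a set herbicide amount, had been sprayed uniformly on soil over freshly sown seeds. Growth took place in a greenhouse at 25° C. to 30° C.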

barnyard grass [2] = test: Test Example 4: herbicidal effect by soil treatment (Table 19, symbol H); format: in vivo, barnyard grass (Echinochloa crus-galli)
Summary of the method: as §2

blackgrass [3] = test: Test Example 4: herbicidal effect by soil treatment (Table 19, symbol J); format: in vivo, blackgrass (Alopecurus myosuroides)
Summary of the method: as §2

redroot pigweed = test: Test Example 4: herbicidal effect by soil treatment (Table 19, symbol N); format: in vivo, redroot pigweed (Amaranthus retroflexus)
Summary of the method: as §2

lambsquarters = test: Test Example 4: herbicidal effect by soil treatment (Table 19, symbol O); format: in vivo, lambsquarters (Chenopodium album)
Summary of the method: as §2

chickweed = test: Test Example 4: herbicidal effect by soil treatment (Table 19, symbol P); format: in vivo, common chickweed (Stellaria media)
Summary of the method: as §2

barnyard grass [4] = test: Test Example 5: herbicidal effect by foliage application, plastic box (Table 20, symbol H); format: in vivo, barnyard grass (Echinochloa crus-galli); settings: foliage application, 3 weeks after application
Summary of the method: (§3)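 Foliar spray test: emulsion formulation diluted in water to a set application rate, sprayed onto 14-day-old plants raised in diluvial soil at 25° C to 30° C under glass. Both herbicidal effect and crop effect rated visually three weeks later.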

wild oat = test: Test Example 5: herbicidal effect by foliage application, plastic box (Table 20, symbol I); format: in vivo, wild oat (Avena fatua); settings: foliage application, 3 weeks after application
Summary of the method: as §3

blackgrass [5] = test: Test Example 5: herbicidal effect by foliage application, plastic box (Table 20, symbol J); format: in vivo, blackgrass (Alopecurus myosuroides); settings: foliage application, 3 weeks after application
Summary of the method: as §3

Italian ryegrass = test: Test Example 5: herbicidal effect by foliage application, plastic box (Table 20, symbol K); format: in vivo, Italian ryegrass (Lolium multiflorum); settings: foliage application, 3 weeks after application
Summary of the method: as §3

velvetleaf = test: Test Example 5: herbicidal effect by foliage application, plastic box (Table 20, symbol M); format: in vivo, velvetleaf (Abutilon theophrasti); settings: foliage application, 3 weeks after application
Summary of the method: as §3

persian speedwell = test: Test Example 5: herbicidal effect by foliage application, plastic box (Table 20, symbol R); format: in vivo, Persian speedwell (Veronica persica); settings: foliage application, 3 weeks after application
Summary of the method: as §3

Compound	herbicidal effect rating, A: late watergrass (late watergrass; AAH 320 g/ha)	herbicidal effect on H (barnyard grass), rating 0-5 (barnyard grass [1]; 320 g/ha)	herbicidal effect on D (Chinese sprangletop), rating 0-5 (Chinese sprangletop; 320 g/ha)	F: southern crabgrass, herbicidal effect rating (southern crabgrass; AAH 320 g/ha)	H: barnyard grass, herbicidal effect rating (barnyard grass [2]; AAH 320 g/ha)	J: blackgrass, herbicidal effect rating (blackgrass [3]; AAH 320 g/ha)	N: redroot pigweed, herbicidal effect rating (redroot pigweed; AAH 320 g/ha)	O: lambsquarters, herbicidal effect rating (lambsquarters; AAH 320 g/ha)	P: chickweed, herbicidal effect rating (chickweed; AAH 320 g/ha)	effect on barnyard grass (H) (barnyard grass [4]; 320 g/ha)	effect on wild oat (I) (wild oat; 320 g/ha)	effect on blackgrass (J) (blackgrass [5]; 320 g/ha)	effect on Italian ryegrass (K) (Italian ryegrass; 320 g/ha)	effect on velvetleaf (M) (velvetleaf; 320 g/ha)	effect on persian speedwell (R) (persian speedwell; 320 g/ha)	further results
C=CCC(C)Oc1ccc(-c2sc3ccccc3c2-c2c(O)c(C)nn(C)c2=O)cc1 (racemic) [1-213]	3 (Herbicidal rate of 40% or more and less than 70%)	5 (Herbicidal rate of 90% or more (almost completely withered))	4 (Herbicidal rate of 70% or more and less than 90%)	0 (Herbicidal rate of 5% or less (almost no effect))	0 (Herbicidal rate of 5% or less (almost no effect))	1 (Herbicidal rate of 5% or more and less than 20%)	0 (Herbicidal rate of 5% or less (almost no effect))	0 (Herbicidal rate of 5% or less (almost no effect))	3 (Herbicidal rate of 40% or more and less than 70%)	5 (Herbicidal rate of 90% or more (almost completely withered))	3 (Herbicidal rate of 40% or more and less than 70%)	5 (Herbicidal rate of 90% or more (almost completely withered))	4 (Herbicidal rate of 70% or more and less than 90%)	5 (Herbicidal rate of 90% or more (almost completely withered))	5 (Herbicidal rate of 90% or more (almost completely withered))	
C#CC(C)Oc1ccc(-c2sc3ccccc3c2-c2c(OCOCCOC)c(C)nn(C)c2=O)cc1 (racemic) [1-218]																herbicidal effect rating, A: late watergrass (late watergrass; AAH 100 g/ha): 3 (Herbicidal rate of 40% or more and less than 70%); herbicidal effect on H (barnyard grass), rating 0-5 (barnyard grass [1]; 100 g/ha): 4 (Herbicidal rate of 70% or more and less than 90%); herbicidal effect on D (Chinese sprangletop), rating 0-5 (Chinese sprangletop; 100 g/ha): 4 (Herbicidal rate of 70% or more and less than 90%); F: southern crabgrass, herbicidal effect rating (southern crabgrass; AAH 187 g/ha): 0 (Herbicidal rate of 5% or less (almost no effect)); H: barnyard grass, herbicidal effect rating (barnyard grass [2]; AAH 187 g/ha): 2 (Herbicidal rate of 20% or more and less than 40%); J: blackgrass, herbicidal effect rating (blackgrass [3]; AAH 187 g/ha): 0 (Herbicidal rate of 5% or less (almost no effect)); N: redroot pigweed, herbicidal effect rating (redroot pigweed; AAH 187 g/ha): 2 (Herbicidal rate of 20% or more and less than 40%); O: lambsquarters, herbicidal effect rating (lambsquarters; AAH 187 g/ha): 3 (Herbicidal rate of 40% or more and less than 70%); P: chickweed, herbicidal effect rating (chickweed; AAH 187 g/ha): 1 (Herbicidal rate of 5% or more and less than 20%); effect on barnyard grass (H) (barnyard grass [4]; 187 g/ha): 3 (Herbicidal rate of 40% or more and less than 70%); effect on wild oat (I) (wild oat; 187 g/ha): 0 (Herbicidal rate of 5% or less (almost no effect)); effect on blackgrass (J) (blackgrass [5]; 187 g/ha): 4 (Herbicidal rate of 70% or more and less than 90%); effect on Italian ryegrass (K) (Italian ryegrass; 187 g/ha): 2 (Herbicidal rate of 20% or more and less than 40%); effect on velvetleaf (M) (velvetleaf; 187 g/ha): 4 (Herbicidal rate of 70% or more and less than 90%); effect on persian speedwell (R) (persian speedwell; 187 g/ha): 5 (Herbicidal rate of 90% or more (almost completely withered))
COCC(C)Oc1ccc(-c2sc3ccccc3c2-c2c(O)c(C)nn(C)c2=O)cc1 (racemic) [1-228]	5 (Herbicidal rate of 90% or more (almost completely withered))	5 (Herbicidal rate of 90% or more (almost completely withered))	5 (Herbicidal rate of 90% or more (almost completely withered))	4 (Herbicidal rate of 70% or more and less than 90%)	4 (Herbicidal rate of 70% or more and less than 90%)	4 (Herbicidal rate of 70% or more and less than 90%)	5 (Herbicidal rate of 90% or more (almost completely withered))	5 (Herbicidal rate of 90% or more (almost completely withered))	4 (Herbicidal rate of 70% or more and less than 90%)	5 (Herbicidal rate of 90% or more (almost completely withered))	0 (Herbicidal rate of 5% or less (almost no effect))	5 (Herbicidal rate of 90% or more (almost completely withered))	4 (Herbicidal rate of 70% or more and less than 90%)	5 (Herbicidal rate of 90% or more (almost completely withered))	5 (Herbicidal rate of 90% or more (almost completely withered))	
CCC(COc1ccc(-c2sc3ccccc3c2-c2c(O)c(C)nn(C)c2=O)cc1)OC (racemic) [1-230]	4 (Herbicidal rate of 70% or more and less than 90%)	5 (Herbicidal rate of 90% or more (almost completely withered))	5 (Herbicidal rate of 90% or more (almost completely withered))	0 (Herbicidal rate of 5% or less (almost no effect))	3 (Herbicidal rate of 40% or more and less than 70%)	4 (Herbicidal rate of 70% or more and less than 90%)	5 (Herbicidal rate of 90% or more (almost completely withered))	5 (Herbicidal rate of 90% or more (almost completely withered))	2 (Herbicidal rate of 20% or more and less than 40%)	5 (Herbicidal rate of 90% or more (almost completely withered))	4 (Herbicidal rate of 70% or more and less than 90%)	5 (Herbicidal rate of 90% or more (almost completely withered))	4 (Herbicidal rate of 70% or more and less than 90%)	5 (Herbicidal rate of 90% or more (almost completely withered))	5 (Herbicidal rate of 90% or more (almost completely withered))	
Cc1nn(C)c(=O)c(-c2c(-c3ccc(OCCBr)cc3)sc3ccccc23)c1O [1-204]	0 (Herbicidal rate of 5% or less (almost no effect))	4 (Herbicidal rate of 70% or more and less than 90%)	2 (Herbicidal rate of 20% or more and less than 40%)	0 (Herbicidal rate of 5% or less (almost no effect))	0 (Herbicidal rate of 5% or less (almost no effect))	0 (Herbicidal rate of 5% or less (almost no effect))	3 (Herbicidal rate of 40% or more and less than 70%)	3 (Herbicidal rate of 40% or more and less than 70%)	0 (Herbicidal rate of 5% or less (almost no effect))	3 (Herbicidal rate of 40% or more and less than 70%)	0 (Herbicidal rate of 5% or less (almost no effect))	0 (Herbicidal rate of 5% or less (almost no effect))	3 (Herbicidal rate of 40% or more and less than 70%)	5 (Herbicidal rate of 90% or more (almost completely withered))	5 (Herbicidal rate of 90% or more (almost completely withered))	
